Results from ChEMBL document CHEMBL1201861, “Genomics of Drug Sensitity in Cancer screening data, Wellcome Trust Sanger Institute”.

Legend:
OAW-42 = test: cells; assay type: functional, cell-based, Homo sapiens; conditions: Homo sapiens, OAW-42;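 further: growth inhibition of OAW-42 cells, read out with a cell viability assay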
Description: SANGER: Inhibition of human OAW-42 cell growth in a cell viability assay.

NCI-H1666 = test: cells; assay type: functional, cell-based, Homo sapiens; conditions: Homo sapiens, NCI-H1666;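 further: growth inhibition of the cell line, read out with a cell viability assay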
Description: SANGER: Inhibition of human NCI-H1666 cell growth in a cell viability assay.

YH-13 = test: cells; assay type: functional, cell-based, Homo sapiens; conditions: Homo sapiens, YH-13;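 further: cell viability readout of growth suppression in the human YH-13 cell line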
Description: SANGER: Inhibition of human YH-13 cell growth in a cell viability assay.

CaR-1 = test: cells; assay type: functional, cell-based, Homo sapiens; conditions: Homo sapiens, CaR-1;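 further: growth inhibition of human CaR-1 cancer cells, read out with a cell viability assay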
Description: SANGER: Inhibition of human CaR-1 cell growth in a cell viability assay.

OE19 = test: cells; assay type: functional, cell-based, Homo sapiens; conditions: Homo sapiens, OE19;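 further: growth inhibition of OE19 cells, measured through a cell viability read-out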
Description: SANGER: Inhibition of human OE19 cell growth in a cell viability assay.

OVCAR-3 = test: cells; assay type: functional, cell-based, Homo sapiens; conditions: Homo sapiens, OVCAR-3;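 further: growth inhibition of human OVCAR-3 cells, determined by a cell viability assay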
Description: SANGER: Inhibition of human OVCAR-3 cell growth in a cell viability assay.

8305C = test: cells; assay type: functional, cell-based, Homo sapiens; conditions: Homo sapiens, 8305C
Description: SANGER: Inhibition of human 8305C cell growth in a cell viability assay.

KP-4 = test: cells; assay type: functional, cell-based, Homo sapiens; conditions: Homo sapiens, KP-4;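 further: human KP-4 cells, with growth inhibition read out through a cell viability assay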
Description: SANGER: Inhibition of human KP-4 cell growth in a cell viability assay.

TGBC11TKB = test: cells; assay type: functional, cell-based, Homo sapiens; conditions: Homo sapiens, TGBC11TKB;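 further: growth inhibition of human TGBC11TKB cells, measured by a cell viability assay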
Description: SANGER: Inhibition of human TGBC11TKB cell growth in a cell viability assay.

NB7 = test: cells; assay type: functional, cell-based, Homo sapiens; conditions: Homo sapiens, NB7;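 further: growth inhibition of NB7 cells, read out with a cell viability assay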
Description: SANGER: Inhibition of human NB7 cell growth in a cell viability assay.

SW48 = test: cells; assay type: functional, cell-based, Homo sapiens; conditions: Homo sapiens, SW48;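 further: growth inhibition of SW48 cells, read out with a cell viability assay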
Description: SANGER: Inhibition of human SW48 cell growth in a cell viability assay.

U2OS = test: cells; assay type: functional, cell-based, Homo sapiens, U-2-OS; conditions: Homo sapiens, U2OS;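 further: growth inhibition of human U-2-OS cells, determined with a cell viability assay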
Description: SANGER: Inhibition of human U-2-OS cell growth in a cell viability assay.

A-427 = test: cells; assay type: functional, cell-based, Homo sapiens; conditions: Homo sapiens, A-427;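 further: growth inhibition of human A-427 cells, read out by a cell viability assay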
Description: SANGER: Inhibition of human A427 cell growth in a cell viability assay.

SW 1116 = test: cells; assay type: functional, cell-based, Homo sapiens; conditions: Homo sapiens, SW 1116;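 further: growth inhibition of SW1116 cells, read out with a cell viability assay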
Description: SANGER: Inhibition of human SW1116 cell growth in a cell viability assay.

CAL-120 = test: cells; assay type: functional, cell-based, Homo sapiens; conditions: Homo sapiens, CAL-120;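 further: cell growth inhibition, read out as cell viability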
Description: SANGER: Inhibition of human CAL-120 cell growth in a cell viability assay.

TI-73 = test: cells; assay type: functional, cell-based, Homo sapiens; conditions: Homo sapiens, TI-73;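 further: cell viability assay measuring how much compounds suppress growth of the cultured cell line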
Description: SANGER: Inhibition of human TI-73 cell growth in a cell viability assay.

TYK-nu = test: cells; assay type: functional, cell-based, Homo sapiens; conditions: Homo sapiens, TYK-nu;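 further: growth inhibition of human TYK-nu cells, read out by a cell viability assay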
Description: SANGER: Inhibition of human TYK-nu cell growth in a cell viability assay.

LU-99A = test: cells; assay type: functional, cell-based, Homo sapiens; conditions: Homo sapiens, LU-99A;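 further: growth inhibition of LU-99A cells, read out with a cell viability assay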
Description: SANGER: Inhibition of human LU-99A cell growth in a cell viability assay.

639-V = test: cells; assay type: functional, cell-based, Homo sapiens; conditions: Homo sapiens, 639-V;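 further: growth inhibition of 639-V cells, read out with a cell viability assay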
Description: SANGER: Inhibition of human 639-V cell growth in a cell viability assay.

RH-18 = test: cells; assay type: functional, cell-based, Homo sapiens; conditions: Homo sapiens, Rh18;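 further: growth inhibition of human RH-18 cells, read out with a cell viability assay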
Description: SANGER: Inhibition of human RH-18 cell growth in a cell viability assay.

KU-19-19 = test: cells; assay type: functional, cell-based, Homo sapiens; conditions: Homo sapiens, KU-19-19
Description: SANGER: Inhibition of human KU-19-19 cell growth in a cell viability assay.

NCI-H2228 = test: cells; assay type: functional, cell-based, Homo sapiens; conditions: Homo sapiens, NCI-H2228;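 further: growth inhibition of human NCI-H2228 cells, read out by a cell viability assay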
Description: SANGER: Inhibition of human NCI-H2228 cell growth in a cell viability assay.

NCI-H1975 = test: cells; assay type: functional, cell-based, Homo sapiens; conditions: Homo sapiens, NCI-H1975
Description: SANGER: Inhibition of human NCI-H1975 cell growth in a cell viability assay.

U-251 = test: cells; assay type: functional, cell-based, Homo sapiens; conditions: Homo sapiens, U-251;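 further: growth inhibition of human U-251 cells, read out through a cell viability assay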
Description: SANGER: Inhibition of human U251 cell growth in a cell viability assay.

23132-87 = test: cells; assay type: functional, cell-based, Homo sapiens; conditions: Homo sapiens
Description: SANGER: Inhibition of human 23132-87 cell growth in a cell viability assay.

NCI-H630 = test: cells; assay type: functional, cell-based, Homo sapiens; conditions: Homo sapiens, NCI-H630;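 further: growth inhibition of NCI-H630 cells, read out with a cell viability assay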
Description: SANGER: Inhibition of human NCI-H630 cell growth in a cell viability assay.

LU-135 = test: cells; assay type: functional, cell-based, Homo sapiens; conditions: Homo sapiens, LU-135
Description: SANGER: Inhibition of human LU-135 cell growth in a cell viability assay.

MCF7 = test: cells; assay type: functional, cell-based, Homo sapiens; conditions: Homo sapiens, MCF7;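 further: growth inhibition of human MCF7 cells, read out with a cell viability assay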
Description: SANGER: Inhibition of human MCF7 cell growth in a cell viability assay.

NCI-H2291 = test: cells; assay type: functional, cell-based, Homo sapiens; conditions: Homo sapiens, NCI-H2291
Description: SANGER: Inhibition of human NCI-H2291 cell growth in a cell viability assay.

COR-L23 = test: cells; assay type: functional, cell-based, Homo sapiens; conditions: Homo sapiens, COR-L23;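 further: cell viability assay measuring how strongly compounds suppress growth of COR-L23 cells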
Description: SANGER: Inhibition of human COR-L23 cell growth in a cell viability assay.

Panc1005 = test: cells; assay type: functional, cell-based, Homo sapiens; conditions: Homo sapiens, Panc1005;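 further: growth inhibition of human PANC-10-05 cells, measured by a cell viability assay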
Description: SANGER: Inhibition of human PANC-10-05 cell growth in a cell viability assay.

Raji = test: cells; assay type: functional, cell-based, Homo sapiens; conditions: Homo sapiens, Raji;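 further: cell viability assay measuring inhibition of Raji cell growth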
Description: SANGER: Inhibition of human Raji cell growth in a cell viability assay.

EB-3 = test: cells; assay type: functional, cell-based, Homo sapiens; conditions: Homo sapiens, EB-3;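 further: human EB-3 cells, growth inhibition read out via a cell viability assay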
Description: SANGER: Inhibition of human EB-3 cell growth in a cell viability assay.

NCI-H1618 = test: cells; assay type: functional, cell-based, Homo sapiens; conditions: Homo sapiens, NCI-H1618;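 further: growth inhibition of human NCI-H1618 cells, measured by a cell viability assay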
Description: SANGER: Inhibition of human NCI-H1618 cell growth in a cell viability assay.

NCI-H1734 = test: cells; assay type: functional, cell-based, Homo sapiens; conditions: Homo sapiens, NCI-H1734;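 further: growth inhibition of human NCI-H1734 cells, read out with a cell viability assay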
Description: SANGER: Inhibition of human NCI-H1734 cell growth in a cell viability assay.

SNG-M = test: cells; assay type: functional, cell-based, Homo sapiens; conditions: Homo sapiens, SNG-M
Description: SANGER: Inhibition of human SNG-M cell growth in a cell viability assay.

NCI-H322M = test: cells; assay type: functional, cell-based, Homo sapiens; conditions: Homo sapiens, NCI-H322M;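 further: cell viability assay measuring inhibition of growth of human NCI-H322M cells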
Description: SANGER: Inhibition of human NCI-H322M cell growth in a cell viability assay.

PLC-PRF-5 = test: cells; assay type: functional, cell-based, Homo sapiens; conditions: Homo sapiens, PLC-PRF-5;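 further: growth inhibition of human PLC-PRF-5 cells, read out with a viability assay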
Description: SANGER: Inhibition of human PLC-PRF-5 cell growth in a cell viability assay.

DV-90 = test: cells; assay type: functional, cell-based, Homo sapiens; conditions: Homo sapiens, DV-90;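 further: Read-out is a viability assay, with IC50 reflecting the drop in DV-90 cell growth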
Description: SANGER: Inhibition of human DV-90 cell growth in a cell viability assay.

CMK = test: cells; assay type: functional, cell-based, Homo sapiens; conditions: Homo sapiens, CMK;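 further: growth inhibition of CMK cells, read out as cell viability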
Description: SANGER: Inhibition of human CMK cell growth in a cell viability assay.

WSU-NHL = test: cells; assay type: functional, cell-based, Homo sapiens; conditions: Homo sapiens, WSU-NHL;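 further: growth inhibition of human WSU-NHL cells, read out with a cell viability assay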
Description: SANGER: Inhibition of human WSU-NHL cell growth in a cell viability assay.

Calu-1 = test: SANGER: Inhibition of human Calu-1 cell growth in a cell viability assay.; assay type: functional, cell-based; conditions: Homo sapiens, Calu-1
CCF-STTG1 = test: cells; assay type: functional, cell-based, Homo sapiens; conditions: Homo sapiens, CCF-STTG1;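 further: growth inhibition of human CCF-STTG1 cells, determined with a cell viability read-out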
Description: SANGER: Inhibition of human CCF-STTG1 cell growth in a cell viability assay.

IPC-298 = test: SANGER: Inhibition of human IPC-298 cell growth in a cell viability assay.; assay type: functional, cell-based; conditions: Homo sapiens, IPC-298
EFE-184 = test: cells; assay type: functional, cell-based, Homo sapiens; conditions: Homo sapiens, EFE-184
Description: SANGER: Inhibition of human EFE-184 cell growth in a cell viability assay.

IMR-5 = test: cells; assay type: functional, cell-based, Homo sapiens; conditions: Homo sapiens, IMR-5;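 further: growth inhibition of human IMR-5 cells, read out with a cell viability assay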
Description: SANGER: Inhibition of human IMR-5 cell growth in a cell viability assay.

Kasumi 1 = test: cells; assay type: functional, cell-based, Homo sapiens; conditions: Homo sapiens, Kasumi 1;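 further: growth inhibition of human Kasumi-1 cells, read out by a cell viability assay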
Description: SANGER: Inhibition of human KASUMI-1 cell growth in a cell viability assay.

Row | SMILES | IC50 (OAW-42) [µM] | IC50 (CaR-1) [µM] | IC50 (OE19) [µM] | IC50 (OVCAR-3) [µM] | IC50 (8305C) [µM] | IC50 (KP-4) [µM] | IC50 (SW48) [µM] | IC50 (U2OS) [µM] | IC50 (A-427) [µM] | IC50 (CAL-120) [µM] | IC50 (TYK-nu) [µM] | IC50 (LU-99A) [µM] | IC50 (639-V) [µM] | IC50 (KU-19-19) [µM] | IC50 (NCI-H2228) [µM] | IC50 (U-251) [µM] | IC50 (23132-87) [µM] | IC50 (NCI-H630) [µM] | IC50 (MCF7) [µM] | IC50 (COR-L23) [µM] | further results
1 | CS(=O)(=O)c1ccc(C(=O)Nc2ccc(Cl)c(-c3ccccn3)c2)c(Cl)c1 [VISMODEGIB] | > 10 | > 10 | > 10 | > 10 | > 10 | > 10 | > 10 | > 10 | > 10 | > 10 | > 10 | > 10 | > 10 | > 10 | > 10 | > 10 | 4.4 | > 10 | > 10 | > 10 | IC50 (NCI-H1666): > 10 µM; IC50 (YH-13): > 10 µM; IC50 (TGBC11TKB): > 10 µM; IC50 (NB7): > 10 µM; IC50 (SW 1116): > 10 µM; IC50 (TI-73): > 10 µM; IC50 (RH-18): > 10 µM; IC50 (NCI-H1975): > 10 µM; IC50 (LU-135): > 10 µM; IC50 (NCI-H2291): > 10 µM; IC50 (Panc1005): > 10 µM
2 | N#Cc1c(O)c2c(-c3ccc(-c4ccccc4O)cc3)csc2[nH]c1=O | > 1.02 | > 1.02 | > 1.02 | > 1.02 | > 1.02 | > 1.02 | > 1.02 | > 1.02 | > 1.02 | > 1.02 | > 1.02 | > 1.02 | > 1.02 | > 1.02 | > 1.02 | > 1.02 | > 1.02 | > 1.02 | > 1.02 | > 1.02 | IC50 (Raji): 0.67 µM; IC50 (EB-3): 0.293 µM; IC50 (NCI-H1618): > 1.02 µM; IC50 (NCI-H1734): > 1.02 µM; IC50 (SNG-M): > 1.02 µM; IC50 (NCI-H322M): > 1.02 µM; IC50 (PLC-PRF-5): > 1.02 µM; IC50 (DV-90): > 1.02 µM; IC50 (CMK): 0.0022 µM; IC50 (WSU-NHL): 0.297 µM; IC50 (Calu-1): > 1.02 µM; IC50 (CCF-STTG1): > 1.02 µM; IC50 (IPC-298): > 1.02 µM; IC50 (EFE-184): > 1.02 µM; IC50 (IMR-5): > 1.02 µM; IC50 (Kasumi 1): 0.0418 µM; IC50 (Panc1005): > 1.02 µM
3 | CC(C)c1ccccc1Cc1cc(C(=O)Nc2ccc(S(=O)(=O)c3ccccc3C(C)(C)C)cc2)c(O)c(O)c1O | 0.492 | 5.93 | 5.98 | 0.379 | 3.91 | 0.455 | 0.238 | 0.552 | 0.0447 | 0.479 | 0.324 | 0.274 | 0.521 | 0.44 | 0.662 | 0.388 | 0.324 | 0.808 | 0.337 | 0.591 | IC50 (NCI-H1666): 0.378 µM; IC50 (YH-13): 0.0706 µM; IC50 (NB7): 0.0293 µM; IC50 (SW 1116): 8.45 µM; IC50 (RH-18): 1.07 µM; IC50 (NCI-H1975): 1.38 µM; IC50 (NCI-H2291): 21 µM; IC50 (Panc1005): 1.1 µM
